Measured values reported in patent US20030157107A1, “Agents for preventing or ameliorating insulin resistance and/or obesity” (priority 2000, published 2003).
Values belong to the molecule of their own block, whether it stands above or below them. No end group written: not given here.

Columns and labels:
[1] = test system: CHO cells without transfer of receptor genes; assay: Inhibition of forskolin-stimulated cAMP production in CHO cells without transfer of receptor genes; type: cell-based; settings: 5 μM forskolin
Procedure: (§1) Screening of low molecular GIP function inhibitors was performed in accordance with the Example 1 of the screening method. Specifically, the GIP-receptor expressing CHO cells were stimulated with 100 pM GIP in the presence and absence of the test compound, and the amount of produced cAMP was measured to determine the GIP function inhibitory activity of the test compound. In addition, in order to confirm the receptor specificity of the test compound, the CHO cells expressing receptors of GLP-1 and glucagon which belong to glucagon-secretin family like GIP were stimulated with GLP-1 and glucagon (100 pM), respectively, and the inhibitory activity of the test compound on production of CAMP was determined. Moreover, in order to determine other effects which are unrelated to these receptors, the CHO cells without introducing any of these receptor genes were stimulated with 5 μM forskolin, and the inhibitory effect of the test compound on production of cAMP was determined. As for positive control, 500 nM GIP (7-30)-NH2 (tGIP) was used. [drawing 1]

GIP-receptor = biological target: T1, GIP-receptor (Homo sapiens, UniProt P48546); assay: Inhibition of GIP-stimulated cAMP production in GIP-receptor expressing CHO cells; type: cell-based; settings: CHO cells expressing GIP-receptor stimulated by 100 pM GIP; read-out: EC50 of inhibition of the cAMP production inducing effect of GIP
T1 construct: expressed in transfected cells; host or cells: CHO cells
T1 sequence (P48546 22-466): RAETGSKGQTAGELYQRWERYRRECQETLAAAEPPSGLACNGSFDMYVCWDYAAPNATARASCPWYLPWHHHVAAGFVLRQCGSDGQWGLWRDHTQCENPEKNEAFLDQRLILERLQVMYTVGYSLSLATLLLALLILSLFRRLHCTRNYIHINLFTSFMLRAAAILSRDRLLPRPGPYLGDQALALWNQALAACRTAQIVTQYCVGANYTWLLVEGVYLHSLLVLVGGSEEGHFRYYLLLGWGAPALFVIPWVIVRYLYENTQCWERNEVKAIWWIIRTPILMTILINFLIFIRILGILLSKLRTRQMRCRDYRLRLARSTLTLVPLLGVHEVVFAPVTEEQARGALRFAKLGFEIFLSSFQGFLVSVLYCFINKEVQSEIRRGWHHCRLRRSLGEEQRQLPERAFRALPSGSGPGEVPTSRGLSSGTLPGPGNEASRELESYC
Procedure: 1. A method for screening drugs by monitoring an inhibitory activity on the production of cAMP, an intracellular transmitter of GIP, which according to the method described by Kubota et al. (Diabetes, 45: 1701-1705, 1996), uses the human GIP-receptor expressing cells where […] is introduced into the CHO cells, and make cAMP produced by GIP in Krebs-Ringer buffer solution containing 1 mM isobutylmethylxanthine at 37° C. for 30 minutes in the presence of the drug. Then cAMP is extracted with 30% trichloroacetic acid, and radioimmunoassay is used to quantitate cAMP. Alternatively, Scintillation Proximity Assay (SPA) provided by Amersham Pharmacia Biotech Co., Inc. is used to quantitate cAMP.
Screening of low molecular GIP function inhibitors was performed in accordance with the Example 1 of the screening method. Specifically, the GIP-receptor expressing CHO cells were stimulated with 100 pM GIP in the presence and absence of the test compound, and the amount of produced cAMP was measured to determine the GIP function inhibitory activity of the test compound. […] Moreover, in order to determine other effects which are unrelated to these receptors, the CHO cells without introducing any of these receptor genes were stimulated with 5 μM forskolin, and the inhibitory effect of the test compound on production of cAMP was determined. […]

glucagon-receptor = biological target: T2, glucagon-receptor (Homo sapiens, UniProt P47871); assay: Inhibition of glucagon-stimulated cAMP production in CHO cells expressing glucagon-receptor; type: cell-based; settings: CHO cells expressing glucagon-receptor stimulated by 100 pM glucagon, read-out: inhibitory rate on the action of glucagon (cAMP production)
T2 construct: expressed in transfected cells; host or cells: CHO cells
T2 sequence (P47871 26-477, species assumed): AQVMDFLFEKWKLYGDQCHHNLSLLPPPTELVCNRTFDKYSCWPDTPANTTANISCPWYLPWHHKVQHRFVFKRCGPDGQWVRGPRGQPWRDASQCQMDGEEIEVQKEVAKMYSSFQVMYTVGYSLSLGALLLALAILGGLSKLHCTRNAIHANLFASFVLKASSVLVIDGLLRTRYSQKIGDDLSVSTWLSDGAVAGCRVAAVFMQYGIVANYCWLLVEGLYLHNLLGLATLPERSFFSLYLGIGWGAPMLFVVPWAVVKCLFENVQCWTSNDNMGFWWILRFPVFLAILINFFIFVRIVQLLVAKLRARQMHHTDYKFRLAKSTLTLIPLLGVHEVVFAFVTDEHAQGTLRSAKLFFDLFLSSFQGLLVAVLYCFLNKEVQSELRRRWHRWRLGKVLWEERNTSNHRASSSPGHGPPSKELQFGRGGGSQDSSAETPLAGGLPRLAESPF
Procedure: as §1

GLP-1-receptor = biological target: T3, GLP-1-receptor (Homo sapiens, UniProt P43220); assay: Inhibition of GLP-1-stimulated cAMP production in CHO cells expressing GLP-1-receptor; type: cell-based; settings: CHO cells expressing GLP-1-receptor stimulated by 100 pM GLP-1
T3 construct: expressed in transfected cells; host or cells: CHO cells
T3 sequence (P43220 24-463, species assumed): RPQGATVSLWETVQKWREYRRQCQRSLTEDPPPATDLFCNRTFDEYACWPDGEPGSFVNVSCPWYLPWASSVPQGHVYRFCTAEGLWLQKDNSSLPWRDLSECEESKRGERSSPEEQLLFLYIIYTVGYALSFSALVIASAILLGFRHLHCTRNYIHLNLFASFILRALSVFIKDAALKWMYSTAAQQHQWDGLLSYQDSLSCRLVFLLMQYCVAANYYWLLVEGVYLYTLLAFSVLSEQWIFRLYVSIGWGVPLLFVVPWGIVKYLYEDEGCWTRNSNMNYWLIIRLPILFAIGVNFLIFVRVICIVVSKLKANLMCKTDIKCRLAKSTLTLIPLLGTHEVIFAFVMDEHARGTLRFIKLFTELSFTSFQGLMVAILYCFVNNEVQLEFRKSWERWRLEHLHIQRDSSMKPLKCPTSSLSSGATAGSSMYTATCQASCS
Procedure: as §1

[2] = test system: glucose absorption by the intestine; settings: reported in WO98/24464; cited from earlier work
C57BL/6j mice = assay: GIP administration and high fat diet loading test in normal mice; type: in vivo; settings: high fat diet
Procedure: The animals used were 17-week-old male C57BL/6j mice. An osmotic pump was implanted under the skin of the back of each animal. Groups of animals each consisting of 5 mice were continuously given GIP 20, 60 or 200 μg/kg/hour or physiological saline as control, and also given either high fat diet or control normal diet. The energy composition of high fat diet was: lipid 45%, carbohydrate 38%, and protein 17%. The energy composition of control normal diet was: lipid 13%, carbohydrate 60%, and protein 27%. The energy contents of high fat and control normal diets were 4.77 and 3.57 kcal/g, respectively. GIP administration and high fat diet loading were continued for 4 weeks.
The body weights were measured weekly, and their changes were compared between the groups. The blood samples were collected under fasting 4 weeks after the start of the experiment to determine the blood glucose and insulin levels.

[3] = continuous GIP 20, 60 or 200 μg/kg/hour, after 4 weeks, vs same diet without GIP

EC50 (GIP-receptor): ~30 µM
inhibition at 80 µM (glucagon-receptor): 27%
inhibitory effect on GLP-1 action (cAMP production) (GLP-1-receptor): almost no inhibitory effect
Molecule: Cc1cc(O)n2nc(-c3ccccc3)c(Br)c2n1 [BMPP, 3-bromo-5-methyl-2-phenylpyrazolo[1,5-a]pyrimidine-7-ol]
inhibitory effect on cAMP production stimulated by forskolin [1]: did not show any inhibitory effect

Molecule: GIP (7-30)-NH2: fragmented peptide of GIP, known GIP-receptor antagonist, used as positive control (ISDYSIAMDKIHQQDFVNWLLAQK-NH2; UniProt P09681 58-81, looked up, fragment)
glucose absorption by the intestine [2]: suppressed glucose absorption by the intestine

Molecule: GIP: gastric inhibitory polypeptide or glucose-dependent insulinotropic peptide, a gastrointestinal hormone (YAEGTFISDYSIAMDKIHQQDFVNWLLAQKGKKNDWKHNITQ; Gastric inhibitory polypeptide; UniProt P09681 52-93, looked up)
body weight gain (C57BL/6j mice; continuous GIP 20, 60 or 200 μg/kg/hour by osmotic pump, 4 weeks): No further increase in the body weight gain
fasting blood glucose levels (C57BL/6j mice; [3]): increased depending on the dose of GIP
fasting blood insulin levels (C57BL/6j mice; [3]): tended to increase depending on the dose of GIP
